The values that follow come from patent US10494378B2, “Fused ring pyrimidine compound, intermediate, and preparation method, composition and use thereof” (GUANGZHOU MAXINOVEL PHARMACEUTICALS CO., LTD., priority 2015, dated 2019).

Assay type in all cases: biochemical
Assay [1] addresses T1, JAK1 kinase (Homo sapiens, UniProt P23458).
T1 construct: purchased Carna 08-144
In words: IC50 evaluation assay on JAK1 kinase inhibition (Caliper). Conditions: adenosine triphosphate at Km; 1 hour at 28° C.; average of two tests; read-out: IC50 (nM) inhibiting JAK 1 kinase. The procedure:
(§1) 1. The compound was dissolved in 100% DMSO, diluted into solutions with appropriate concentration gradients with water according to experimental requirement, and added to a 384-well plate.
(§2) 2. JAK2 kinase (Carna, Cat. No. 08-045, Lot. No. 07CBS-1927) and JAK3 kinase (Carna, Cat. No. 08-046, Lot. No. 08CBS-0371) were diluted to the optimum concentration with the following buffer solution: 50 mM HEPES, pH 7.5, 0.0015% Brij-35, 2 mM DTT. JAK1 kinase (Carna, Cat. No. 08-144, Lot. No. 11CBS-0144D) was diluted to the optimum concentration with the following buffer solution: 25 mM HEPES pH 7.5, 0.01% Brij-35, 2 mM DTT, 0.01M Triton. Transfer to the 384-well plate and incubated with the compound for a period of time.
(§3) 3. […] The substrate of JAK1 was diluted to the optimum concentration with the following buffer: 25 mM HEPES, pH 7.5, 0.01% Brij-35, 10 mM MgCl2, 0.01M Triton, adenosine triphosphate at Km. Add to the 384-well plate to initiate there action and react for 1 hour at 28° C.
(§4) 4. 1 Eq. of sulfuric acid solution was added to terminate the reaction, the conversion rate was read with Caliper Reader. The inhibition rate was calculated as the average of two tests.

The target of assay [2] is T2, JAK3 kinase (Homo sapiens, UniProt P52333).
T2 construct: purchased Carna 08-046
T2 sequence (P52333 1-1124): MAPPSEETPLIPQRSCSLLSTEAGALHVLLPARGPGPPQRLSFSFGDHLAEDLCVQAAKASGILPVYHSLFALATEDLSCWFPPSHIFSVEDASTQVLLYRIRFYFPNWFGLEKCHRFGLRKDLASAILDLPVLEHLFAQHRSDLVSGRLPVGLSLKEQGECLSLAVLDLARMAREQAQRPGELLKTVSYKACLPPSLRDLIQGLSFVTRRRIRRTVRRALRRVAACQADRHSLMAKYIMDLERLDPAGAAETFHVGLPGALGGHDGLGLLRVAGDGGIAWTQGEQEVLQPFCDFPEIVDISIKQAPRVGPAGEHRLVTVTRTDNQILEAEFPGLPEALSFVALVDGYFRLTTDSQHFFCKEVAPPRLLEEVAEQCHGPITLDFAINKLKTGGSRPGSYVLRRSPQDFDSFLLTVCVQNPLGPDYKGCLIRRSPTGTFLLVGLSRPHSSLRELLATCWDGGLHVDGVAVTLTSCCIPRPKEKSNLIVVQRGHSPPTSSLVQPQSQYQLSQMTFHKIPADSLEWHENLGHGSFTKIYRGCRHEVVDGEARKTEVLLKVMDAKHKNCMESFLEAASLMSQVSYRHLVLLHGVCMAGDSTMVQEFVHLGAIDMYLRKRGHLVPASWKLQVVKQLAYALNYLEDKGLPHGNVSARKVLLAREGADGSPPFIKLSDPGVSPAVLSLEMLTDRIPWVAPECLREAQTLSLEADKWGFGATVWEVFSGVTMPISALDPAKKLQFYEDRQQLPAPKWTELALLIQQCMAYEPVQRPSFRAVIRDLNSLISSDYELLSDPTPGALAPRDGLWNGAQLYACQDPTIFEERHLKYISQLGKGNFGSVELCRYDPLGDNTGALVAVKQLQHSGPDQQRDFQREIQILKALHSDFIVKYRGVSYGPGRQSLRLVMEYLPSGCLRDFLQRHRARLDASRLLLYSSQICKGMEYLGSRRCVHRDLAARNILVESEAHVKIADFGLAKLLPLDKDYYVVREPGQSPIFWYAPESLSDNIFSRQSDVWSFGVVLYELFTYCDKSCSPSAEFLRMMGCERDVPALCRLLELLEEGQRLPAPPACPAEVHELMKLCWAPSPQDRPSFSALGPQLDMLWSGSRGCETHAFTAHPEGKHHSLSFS
In words: IC50 evaluation assay on JAK3 kinase inhibition (Caliper). Conditions: adenosine triphosphate at Km; 1 hour at 28° C.; average of two tests; read-out: IC50 (nM) inhibiting JAK 3 kinase. The protocol: as §1, §2, §3, §4

Assay [3] has as its target T3, JAK2 kinase (Homo sapiens, UniProt O60674).
T3 construct: purchased Carna 08-045
In words: IC50 evaluation assay on JAK2 kinase inhibition (Caliper). The note with it: adenosine triphosphate at Km; 1 hour at 28° C.; average of two tests; read-out: IC50 (nM) inhibiting JAK 2 kinase. The protocol: as §1, §2, §3, §4

T3 sequence (O60674 whole entry): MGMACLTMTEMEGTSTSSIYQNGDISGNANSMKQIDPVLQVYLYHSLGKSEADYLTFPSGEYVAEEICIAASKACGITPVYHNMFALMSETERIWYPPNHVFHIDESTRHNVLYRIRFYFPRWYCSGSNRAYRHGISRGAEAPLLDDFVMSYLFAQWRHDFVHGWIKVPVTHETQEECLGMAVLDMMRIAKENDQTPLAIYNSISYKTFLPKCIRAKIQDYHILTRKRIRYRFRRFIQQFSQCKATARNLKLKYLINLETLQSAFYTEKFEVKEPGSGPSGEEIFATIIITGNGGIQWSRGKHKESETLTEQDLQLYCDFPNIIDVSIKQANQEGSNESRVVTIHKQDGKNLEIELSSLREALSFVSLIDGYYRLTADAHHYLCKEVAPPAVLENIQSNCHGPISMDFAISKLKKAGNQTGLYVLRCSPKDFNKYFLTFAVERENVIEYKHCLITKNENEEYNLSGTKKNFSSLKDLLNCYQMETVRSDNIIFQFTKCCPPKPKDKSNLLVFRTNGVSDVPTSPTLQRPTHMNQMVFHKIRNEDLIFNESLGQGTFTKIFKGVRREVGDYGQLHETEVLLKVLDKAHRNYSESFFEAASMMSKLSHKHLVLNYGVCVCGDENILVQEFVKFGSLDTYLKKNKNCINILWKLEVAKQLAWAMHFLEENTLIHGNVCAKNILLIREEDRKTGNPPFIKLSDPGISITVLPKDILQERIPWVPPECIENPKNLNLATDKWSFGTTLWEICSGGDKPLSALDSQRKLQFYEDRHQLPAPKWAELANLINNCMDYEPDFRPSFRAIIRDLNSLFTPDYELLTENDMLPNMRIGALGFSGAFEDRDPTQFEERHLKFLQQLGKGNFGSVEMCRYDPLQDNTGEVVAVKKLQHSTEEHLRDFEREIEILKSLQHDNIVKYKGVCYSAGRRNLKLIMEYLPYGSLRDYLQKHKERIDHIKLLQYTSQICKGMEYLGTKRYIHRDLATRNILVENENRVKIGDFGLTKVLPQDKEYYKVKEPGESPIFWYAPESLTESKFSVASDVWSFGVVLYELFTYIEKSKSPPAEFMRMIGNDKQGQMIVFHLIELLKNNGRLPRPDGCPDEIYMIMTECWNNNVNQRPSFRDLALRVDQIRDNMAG
T1 sequence (P23458 whole entry): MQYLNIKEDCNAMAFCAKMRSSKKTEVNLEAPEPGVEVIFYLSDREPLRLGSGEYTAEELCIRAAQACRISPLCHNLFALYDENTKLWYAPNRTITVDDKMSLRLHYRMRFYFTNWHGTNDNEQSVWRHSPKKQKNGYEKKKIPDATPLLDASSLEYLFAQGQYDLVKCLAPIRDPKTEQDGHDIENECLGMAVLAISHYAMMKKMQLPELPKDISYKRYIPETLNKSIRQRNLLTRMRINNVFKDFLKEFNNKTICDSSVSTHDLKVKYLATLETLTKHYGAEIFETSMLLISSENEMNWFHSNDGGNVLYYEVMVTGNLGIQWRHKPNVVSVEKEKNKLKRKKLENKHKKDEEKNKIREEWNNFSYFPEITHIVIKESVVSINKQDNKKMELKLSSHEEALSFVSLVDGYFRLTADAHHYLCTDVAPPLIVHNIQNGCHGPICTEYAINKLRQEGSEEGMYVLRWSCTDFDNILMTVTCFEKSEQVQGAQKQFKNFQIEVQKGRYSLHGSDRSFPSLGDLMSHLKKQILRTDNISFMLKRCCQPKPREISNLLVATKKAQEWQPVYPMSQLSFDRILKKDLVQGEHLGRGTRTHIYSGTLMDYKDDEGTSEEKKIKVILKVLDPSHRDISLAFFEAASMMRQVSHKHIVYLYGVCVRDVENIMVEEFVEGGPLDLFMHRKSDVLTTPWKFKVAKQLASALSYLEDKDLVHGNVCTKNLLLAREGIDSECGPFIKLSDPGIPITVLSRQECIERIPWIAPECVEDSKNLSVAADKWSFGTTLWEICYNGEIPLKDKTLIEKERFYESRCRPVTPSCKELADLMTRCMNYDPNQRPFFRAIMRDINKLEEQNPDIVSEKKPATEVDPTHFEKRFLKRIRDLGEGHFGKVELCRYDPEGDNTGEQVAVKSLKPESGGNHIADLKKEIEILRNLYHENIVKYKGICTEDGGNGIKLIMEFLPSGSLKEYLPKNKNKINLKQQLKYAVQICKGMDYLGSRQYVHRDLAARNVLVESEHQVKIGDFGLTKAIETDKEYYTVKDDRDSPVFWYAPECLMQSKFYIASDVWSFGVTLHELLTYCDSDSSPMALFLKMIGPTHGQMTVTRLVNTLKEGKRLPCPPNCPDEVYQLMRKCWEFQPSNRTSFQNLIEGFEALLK

Broadly, the IC50 is the concentration needed to halve the response being measured. With `COc1ccccc1-c1c(C)sc2cnc(Nc3cnn(C)c3)nc12` [Compound 1, N-[7-(2-methoxyphenyl)-6-methylthieno[3,2-d]pyrimidinyl-2-yl]-1-methyl-1H-pyrazol-4-amine], the IC50 in assay [1] was 6.8 nM; in assay [2], 1.7 nM; in assay [3] it was 1.7 nM.

For `Cc1sc2cnc(Nc3cnn(C)c3)nc2c1-c1cccc2c1OCC2` [Compound 2, N-[7-(2,3-dihydro-1-benzofuran-7-yl)-6-methylthieno[3,2-d]pyrimidinyl-2-yl]-1-methyl-1H-pyrazol-4-amine], the figures for the IC50 in assay [1], in assay [2] and in assay [3] were 14 nM, 0.99 nM and 1.8 nM, respectively.

On to `COc1cc(S(C)(=O)=O)ccc1-c1c(C)sc2cnc(Nc3cnn(C)c3)nc12` [Compound 4], for which the IC50 was found to be 16 nM in assay [1], 3.1 nM in assay [2] and 1.3 nM in assay [3].

With `COc1cc(Cl)ccc1-c1c(C)sc2cnc(Nc3cnn(C)c3)nc12` [Compound 6, N-[7-(4-chloro-2-dimethoxyphenyl)-6-methylthieno[3,2-d]pyrimidinyl-2-yl]-1-methyl-1H-pyrazol-4-amine], the results for the IC50 in assay [1], in assay [2] and in assay [3] were 12 nM, 1.4 nM and 1.4 nM, respectively.

With `COc1ccc(-c2c(C)sc3cnc(Nc4cnn(C)c4)nc23)c(OC)c1` [Compound 7, N-[7-(2,4-dimethoxyphenyl)-6-methylthieno[3,2-d]pyrimidinyl-2-yl]-1-methyl-1H-pyrazol-4-amine], the 50% inhibitory concentration (IC50) in assay [1] stood at 13 nM; in assay [2] it was 1.8 nM; in assay [3] it was 1.2 nM.

Turning to `Cc1sc2cnc(Nc3cnn(C)c3)nc2c1-c1ccccc1OC(F)F` [Compound 10, N-{7-[2-(difluoromethoxy)phenyl]-6-methylthieno[3,2-d]pyrimidinyl-2-yl]-1-methyl-1H-pyrazol-4-amine], the IC50 turned out to be 10.6 nM in assay [1], 3.6 nM in assay [2] and 1.1 nM in assay [3].

Regarding `COc1cc(OCCCS(C)(=O)=O)ccc1-c1c(C)sc2cnc(Nc3cnn(C)c3)nc12` [Compound 11, N-{7-[4-(3-methylsulfonylpropoxy)-2-methoxyphenyl]-6-methylthieno[3,2-d]pyrimidinyl-2-yl]-1-methyl-1H-pyrazol-4-amine], the results for the IC50 in assay [1], in assay [2] and in assay [3] were 5.1 nM, 0.73 nM and 0.94 nM, respectively.

As for `COc1cc(O[C@@H]2CCOC2)ccc1-c1c(C)sc2cnc(Nc3cnn(C)c3)nc12` [Compound 12, N-(7-{2-methoxy-4-[(3R)-3-tetrahydrofuranoxyl]phenyl]-6-methylthieno[3,2-d]pyrimidinyl-2-yl]-1-methyl-1H-pyrazol-4-amine], the IC50 in assay [1] was determined as 12 nM; in assay [2], 1.4 nM; in assay [3], 1.8 nM.

With `COc1cc(O[C@H]2CCOC2)ccc1-c1c(C)sc2cnc(Nc3cnn(C)c3)nc12` [Compound 15, N-(7-{2-methoxy-4-[(3S)-3-tetrahydrofuranoxy]phenyl}-6-methylthieno[3,2-d]pyrimidinyl-2-yl]-1-methyl-1H-pyrazol-4-amine], the IC50 in assay [1] came to 13 nM; in assay [2] it was 2.1 nM; in assay [3], 1.8 nM.

Consider `COc1cc(OCCCN2CCC2)ccc1-c1c(C)sc2cnc(Nc3cnn(C)c3)nc12` [Compound 16], for which the IC50 in assay [1] came out at 34 nM; in assay [2], 6.4 nM; in assay [3] it was 6.1 nM.

Regarding `COc1cc(OCCCN2CCOCC2)ccc1-c1c(C)sc2cnc(Nc3cnn(C)c3)nc12` [Compound 17, N-(7-{2-methoxy-4-[3-(4-morpholinyl)propoxy]phenyl}-6-methylthieno[3,2-d]pyrimidinyl-2-yl)-1-methyl-1H-pyrazol-4-amine], the IC50 amounted to 16 nM in assay [1], 1.3 nM in assay [2] and 2.3 nM in assay [3].

`COc1cc(OCCCN2CCCC2)ccc1-c1c(C)sc2cnc(Nc3cnn(C)c3)nc12` [Compound 18, N-(7-{2-methoxy-4-[3-(1-pyrrolidinyl)propoxy]phenyl}-6-methylthieno[3,2-d]pyrimidinyl-2-yl)-1-methyl-1H-pyrazol-4-amine]: the IC50 came to 20 nM in assay [1], 4.5 nM in assay [2] and 4.3 nM in assay [3].

In the case of `COc1ccccc1-c1c(C)sc2cnc(Nc3cnn(CCO)c3)nc12` [Compound 21, 2-(4-{[7-(2-methoxyphenyl)-6-methylthieno[3,2-d]pyrimidinyl-2-yl]amino}-1H-pyrazol-1-yl)-1-ethanol], the IC50 in assay [1] was 1.3 nM; in assay [2] it was 0.39 nM; in assay [3], 0.31 nM.

For `COc1ccccc1-c1c(C)sc2cnc(Nc3cnn(CCN4CCN(C)CC4)c3)nc12` [Compound 22], the IC50 in assay [1] came out at 43 nM; in assay [2] it was 1.5 nM; in assay [3], 1.7 nM.

As to `COc1cc(OCC(=O)N2CCC2)ccc1-c1c(C)sc2cnc(Nc3cnn(C)c3)nc12` [Compound 23], the IC50 was determined as 1.1 nM in assay [1], 0.64 nM in assay [2] and 0.37 nM in assay [3].

For the compound `COc1cc(OCCCS(C)(=O)=O)ccc1-c1c(C)sc2cnc(Nc3cnn(CCO)c3)nc12` [Compound 24, 2-(4-{[7-(4-(3-methylsulfonylpropoxy)-2-methoxyphenyl]-6-methylthieno[3,2-d]pyrimidinyl-2-yl}amino)-1H-pyrazol-1-yl]-1-ethanol], the IC50 in assay [1] was determined as 9 nM; in assay [2], 1.3 nM; in assay [3], 0.94 nM.

`COc1ccccc1-c1c(C)sc2cnc(Nc3cnn(C4CCN(C)CC4)c3)nc12` [Compound 25, N-[7-(2-methoxyphenyl)-6-methylthieno[3,2-d]pyrimidinyl-2-yl]-1-(1-methylpiperidin-4-yl)-1H-pyrazol-4-amine]: the IC50 in assay [1] was 3.6 nM; in assay [2], 1.3 nM; in assay [3], 0.6 nM.

With `COc1ccccc1-c1c(C)sc2cnc(Nc3cnn(CCCN4CCCC4)c3)nc12` [Compound 26, N-[7-(2-methoxyphenyl)-6-methylthieno[3,2-d]pyrimidinyl-2-yl]-1-[3-(1-pyrrolidinyl)propyl]-1H-pyrazol-4-amine], the figures for the IC50 in assay [1], in assay [2] and in assay [3] were 12 nM, 1.6 nM and 1.6 nM, respectively.

`COc1cc(F)ccc1-c1c(C)sc2cnc(Nc3cnn(CCCN4CCCC4)c3)nc12` [Compound 27, N-[7-(4-fluoro-2-methoxyphenyl)-6-methylthieno[3,2-d]pyrimidinyl-2-yl]-1-[3-(1-pyrrolidinyl)propyl]-1H-pyrazol-4-amine]: the IC50 stood at 10 nM in assay [1], 1.6 nM in assay [2] and 2.3 nM in assay [3].

In the case of `CN(c1ccccc1-c1csc2cnc(Nc3cnn(C)c3)nc12)S(C)(=O)=O` [Compound 28, N-methyl-N-(2-{2-[(1-methyl-1H-pyrazol-4-yl)amino]thieno[3,2-d]pyrimidinyl-7-yl}phenyl)methanesulfonamide], the IC50 in assay [1] was 75.8 nM; in assay [2], 1.3 nM; in assay [3], 23 nM.

On to `Cc1sc2cnc(Nc3cnn(C)c3)nc2c1-c1ccccc1OC(C)C` [Compound 29, 1-Methyl-N-{6-methyl-7-[2-(isopropoxy)phenyl]thieno[3,2-d]pyrimidinyl-2-yl]-1H-pyrazol-4-amine], for which the values for the IC50 in assay [1], in assay [2] and in assay [3] were 30.4 nM, 15.9 nM and 0.8 nM, respectively.
